The values below are quoted from earlier work in US20220098283A1, “ACE2- and TMPRSS2-Targeted Compositions and Methods for Treating COVID-19” (priority 2020, published 2022).

The target in this data set is hACE2 (Homo sapiens, UniProt Q9BYF1). Conditions: 100 μM angiotensin II, 37° C., 2 hours.

Molecules are shown by their SMILES. Read-outs that look alike come from different tables or passages of the source.

Sequence of hACE2 (Q9BYF1 18-805): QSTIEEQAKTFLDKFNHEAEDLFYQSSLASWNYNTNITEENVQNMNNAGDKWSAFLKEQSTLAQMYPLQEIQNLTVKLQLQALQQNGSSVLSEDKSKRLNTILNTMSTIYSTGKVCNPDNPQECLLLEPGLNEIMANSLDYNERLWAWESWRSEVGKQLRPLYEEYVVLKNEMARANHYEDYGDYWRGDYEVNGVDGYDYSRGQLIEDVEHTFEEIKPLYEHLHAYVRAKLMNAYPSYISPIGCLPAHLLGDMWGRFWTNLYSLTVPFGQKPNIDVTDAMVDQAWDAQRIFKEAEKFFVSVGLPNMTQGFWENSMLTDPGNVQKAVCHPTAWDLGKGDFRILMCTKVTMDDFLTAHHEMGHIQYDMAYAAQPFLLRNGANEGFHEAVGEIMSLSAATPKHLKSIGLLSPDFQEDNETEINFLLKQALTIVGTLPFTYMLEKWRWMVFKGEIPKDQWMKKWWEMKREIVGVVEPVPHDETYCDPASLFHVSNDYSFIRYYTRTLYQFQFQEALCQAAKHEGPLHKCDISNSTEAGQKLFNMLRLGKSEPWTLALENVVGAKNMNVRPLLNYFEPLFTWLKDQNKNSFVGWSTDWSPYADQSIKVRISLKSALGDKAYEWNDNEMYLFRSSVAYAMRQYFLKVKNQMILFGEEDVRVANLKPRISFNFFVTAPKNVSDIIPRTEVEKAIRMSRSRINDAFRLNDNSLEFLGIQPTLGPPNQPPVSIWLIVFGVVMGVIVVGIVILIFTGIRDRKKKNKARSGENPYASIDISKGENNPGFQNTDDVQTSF

Regarding `O=C(O)CN(CCN(CC(=O)O)CC(=O)O)CC(=O)O` [EDTA], the “inhibition of hACE2 activity (angiotensin II cleavage)” value (inhibitor 10 mM) is recorded as “inhibits hACE2 activity”. With `O=C(O)CC(Cc1ccccc1)C(=O)O` (centres unmarked) [benzyl succinate], where the note is “inhibitor 100 μM”, the “inhibition of hACE2 activity (angiotensin II cleavage)” value is “none of lisinopril, captopril, enalaprilat, and benzyl succinate (a carboxypeptidase A inhibitor) inhibits hACE2 activity”.
